# Measured values reported in patent publication US8927533B2, “Thio derivatives bearing lactams as potent HDAC inhibitors and their uses as medicaments” (SIGMA-TAU Industrie Farmaceutiche Riunite S.p.A., priority 2011, dated 2015).
# Read-outs that look alike come from different tables or passages of the source.
# What was measured:
# [1] = molecular target: T1, HDAC3 (complex of full length human HDAC3 with human NCOR2 amino acids 395-489) (Homo sapiens, UniProt O15379); test: HDAC enzymatic assay, HDAC3; type: biochemical
# T1 construct: complex of full length human HDAC3 with a C-terminal His-tag; His-tag (C); host or cells: baculovirus expression system
# Description: (§1) Each compound was dissolved in DMSO, and progressively diluted solutions were used for testing. […] Upon its deacetylation, the fluorophore was released given rise to fluorescence emission which was detected by a fluorimeter, and the IC50 values of the compounds were determined by analyzing dose-response inhibition curves.
# HDAC5 = HDAC5 (Homo sapiens, UniProt Q9UQL6); test: HDAC enzymatic assay, HDAC5; type: biochemical
# Description: as §1
# HDAC6 = molecular target: T2, HDAC6 (Homo sapiens, UniProt Q9UBN7); test: HDAC enzymatic assay, HDAC6; type: biochemical
# T2 sequence (Q9UBN7 1-1215): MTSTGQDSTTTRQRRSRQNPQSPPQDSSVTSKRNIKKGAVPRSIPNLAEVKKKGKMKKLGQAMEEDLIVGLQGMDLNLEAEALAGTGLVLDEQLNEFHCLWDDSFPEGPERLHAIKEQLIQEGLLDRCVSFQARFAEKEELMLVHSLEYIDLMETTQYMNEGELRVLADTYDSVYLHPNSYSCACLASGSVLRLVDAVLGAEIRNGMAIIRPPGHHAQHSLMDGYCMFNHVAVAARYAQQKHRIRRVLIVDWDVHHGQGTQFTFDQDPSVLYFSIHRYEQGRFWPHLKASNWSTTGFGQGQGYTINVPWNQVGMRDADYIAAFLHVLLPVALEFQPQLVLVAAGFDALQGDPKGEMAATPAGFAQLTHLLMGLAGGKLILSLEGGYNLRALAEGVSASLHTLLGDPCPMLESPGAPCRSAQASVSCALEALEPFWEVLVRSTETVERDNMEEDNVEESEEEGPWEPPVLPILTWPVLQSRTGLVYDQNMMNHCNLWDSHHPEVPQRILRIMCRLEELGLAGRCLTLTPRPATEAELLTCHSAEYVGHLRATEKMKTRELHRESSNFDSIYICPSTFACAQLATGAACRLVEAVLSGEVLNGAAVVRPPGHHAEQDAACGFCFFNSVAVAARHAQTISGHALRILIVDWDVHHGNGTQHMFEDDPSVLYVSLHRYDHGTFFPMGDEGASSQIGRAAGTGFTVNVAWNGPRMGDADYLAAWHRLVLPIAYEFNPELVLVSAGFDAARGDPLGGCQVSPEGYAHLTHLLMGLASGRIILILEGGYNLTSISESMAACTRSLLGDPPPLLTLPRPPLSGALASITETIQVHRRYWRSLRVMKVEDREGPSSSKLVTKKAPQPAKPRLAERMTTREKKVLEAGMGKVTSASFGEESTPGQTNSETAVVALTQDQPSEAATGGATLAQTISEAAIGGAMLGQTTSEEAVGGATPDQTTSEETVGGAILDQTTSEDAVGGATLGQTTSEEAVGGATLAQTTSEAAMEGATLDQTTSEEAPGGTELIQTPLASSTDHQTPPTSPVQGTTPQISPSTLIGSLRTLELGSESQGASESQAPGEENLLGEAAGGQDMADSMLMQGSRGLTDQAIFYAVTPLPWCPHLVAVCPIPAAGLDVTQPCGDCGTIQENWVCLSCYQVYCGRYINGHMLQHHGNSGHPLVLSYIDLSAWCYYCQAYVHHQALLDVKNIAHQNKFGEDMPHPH
# Description: as §1
# HDAC10 = molecular target: T3, HDAC10 (Homo sapiens, UniProt Q969S8); test: HDAC enzymatic assay, HDAC10; type: biochemical
# T3 sequence (Q969S8 1-669): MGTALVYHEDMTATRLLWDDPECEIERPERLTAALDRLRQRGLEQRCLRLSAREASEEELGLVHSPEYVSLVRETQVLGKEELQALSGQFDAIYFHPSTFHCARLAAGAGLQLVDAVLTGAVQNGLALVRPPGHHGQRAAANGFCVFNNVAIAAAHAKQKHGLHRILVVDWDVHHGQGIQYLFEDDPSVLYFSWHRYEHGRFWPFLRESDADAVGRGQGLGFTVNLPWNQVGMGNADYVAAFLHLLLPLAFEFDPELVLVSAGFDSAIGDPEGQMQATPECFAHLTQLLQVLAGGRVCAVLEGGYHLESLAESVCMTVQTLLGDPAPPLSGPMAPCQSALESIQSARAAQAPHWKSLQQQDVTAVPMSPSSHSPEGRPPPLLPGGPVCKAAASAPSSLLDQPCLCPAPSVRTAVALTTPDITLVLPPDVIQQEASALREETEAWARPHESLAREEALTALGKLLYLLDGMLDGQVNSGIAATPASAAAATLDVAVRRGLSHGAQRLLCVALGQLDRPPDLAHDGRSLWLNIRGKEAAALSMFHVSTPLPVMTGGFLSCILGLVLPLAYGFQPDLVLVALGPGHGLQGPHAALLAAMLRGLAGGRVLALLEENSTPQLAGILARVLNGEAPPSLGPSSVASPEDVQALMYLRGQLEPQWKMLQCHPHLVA
# Description: as §1
# HDAC11 = molecular target: T4, HDAC11 (Homo sapiens, UniProt Q96DB2); test: HDAC enzymatic assay, HDAC11; type: biochemical
# T4 sequence (Q96DB2 1-347): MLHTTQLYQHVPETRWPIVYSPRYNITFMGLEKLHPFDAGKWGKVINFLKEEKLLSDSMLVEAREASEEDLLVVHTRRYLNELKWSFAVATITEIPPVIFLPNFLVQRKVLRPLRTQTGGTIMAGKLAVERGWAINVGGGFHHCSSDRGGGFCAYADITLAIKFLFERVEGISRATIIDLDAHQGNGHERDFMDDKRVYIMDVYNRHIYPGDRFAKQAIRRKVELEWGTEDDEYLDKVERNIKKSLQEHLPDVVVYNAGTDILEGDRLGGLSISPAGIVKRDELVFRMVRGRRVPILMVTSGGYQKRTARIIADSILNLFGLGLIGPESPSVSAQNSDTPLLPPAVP
# Description: as §1
# [2] = test system: HCT116 colon cancer cells; test: Cytotoxicity, sulphorodamine B, HCT116; details: Homo sapiens, HCT-116, read-out: HCT116 cell line IC50 (μM)
# Description: (§2) They were allowed to attach and recover for at least 24 h.
# (§3) The plates were incubated for 24 h at 37° C., after which they were washed 3 times by removal of the supernatant and addition of PBS. The plates were then incubated for further 48 h at 37° C. 200 μl PBS and 50 μl of cold 80% TCA were added and the plates were incubated on ice for at least 1 h. TCA was removed and the plates were washed 3 times by immersion in distilled-water. They were then dried on paper at 40° C. for 5 min. 200 μl of 0.4% sulphorodamine B in 1% acetic acid were added. The plates were incubated at room temperature for further 30 min. Sulphorodamine B was removed, and the plates were washed 3 times by immersion in 1% acetic acid and were dried on paper and at 40° C. for 5 min. Then 200 μl Tris 10 mM were added. The plates were kept under magnetic stirring for 20 min. Cell survival was determined by means of optical density by a Multiskan spectrofluorimeter at 540 nm. The amount of cells killed was calculated as the percentage decrease in sulphorodamine B binding compared to control cultures.
# [3] = test system: NCI-H460 non-small cell lung carcinoma cells; test: Cytotoxicity, sulphorodamine B, H460; details: Homo sapiens, NCI-H460, read-out: H460 cell line IC50 (μM)
# Description: as §2, §3
# [4] = Table 2, thio (SH) vs hydroxamate (CONHOH) MBG analogues, read-out: HDAC isoforms, 3 (IC50)
# [5] = fluorogenic tetrapeptide RHKKAc substrate 10 μM, read-out: HDAC isoforms IC50 (nM), 3
# [6] = Table 2, thio (SH) vs hydroxamate (CONHOH) MBG analogues, read-out: HDAC isoforms, 5 (IC50)
# [7] = fluorogenic tetrapeptide RHKKAc substrate 10 μM, read-out: HDAC isoforms IC50 (nM), 5
# [8] = Table 2, thio (SH) vs hydroxamate (CONHOH) MBG analogues, read-out: HDAC isoforms, 6 (IC50)
# [9] = fluorogenic tetrapeptide RHKKAc substrate 10 μM, read-out: HDAC isoforms IC50 (nM), 6
# [10] = Table 2, thio (SH) vs hydroxamate (CONHOH) MBG analogues, read-out: HDAC isoforms, 10 (IC50)
# [11] = fluorogenic tetrapeptide RHKKAc substrate 10 μM, read-out: HDAC isoforms IC50 (nM), 10
# [12] = Table 2, thio (SH) vs hydroxamate (CONHOH) MBG analogues, read-out: HDAC isoforms, 11 (IC50)
# [13] = fluorogenic tetrapeptide RHKKAc substrate 10 μM, read-out: HDAC isoforms IC50 (nM), 11
# T1 sequence (O15379 whole entry, the tested form may be a part): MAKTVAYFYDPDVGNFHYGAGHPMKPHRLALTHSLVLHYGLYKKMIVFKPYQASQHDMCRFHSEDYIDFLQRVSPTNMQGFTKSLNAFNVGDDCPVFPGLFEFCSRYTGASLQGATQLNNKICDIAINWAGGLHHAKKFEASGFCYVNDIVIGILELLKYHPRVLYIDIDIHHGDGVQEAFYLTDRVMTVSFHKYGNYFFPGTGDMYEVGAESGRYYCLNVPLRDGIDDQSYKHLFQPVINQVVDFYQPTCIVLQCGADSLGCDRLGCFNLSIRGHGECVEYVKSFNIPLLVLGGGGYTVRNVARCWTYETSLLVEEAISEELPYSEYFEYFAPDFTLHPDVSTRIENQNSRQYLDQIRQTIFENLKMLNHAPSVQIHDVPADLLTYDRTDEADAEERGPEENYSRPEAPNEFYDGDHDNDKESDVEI
# T1 sequence (Q9Y618 395-489 partner limits assumed): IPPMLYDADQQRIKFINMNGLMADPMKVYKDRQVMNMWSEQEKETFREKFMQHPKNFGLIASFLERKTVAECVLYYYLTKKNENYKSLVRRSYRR
# Sequence of HDAC5 (Q9UQL6 whole entry): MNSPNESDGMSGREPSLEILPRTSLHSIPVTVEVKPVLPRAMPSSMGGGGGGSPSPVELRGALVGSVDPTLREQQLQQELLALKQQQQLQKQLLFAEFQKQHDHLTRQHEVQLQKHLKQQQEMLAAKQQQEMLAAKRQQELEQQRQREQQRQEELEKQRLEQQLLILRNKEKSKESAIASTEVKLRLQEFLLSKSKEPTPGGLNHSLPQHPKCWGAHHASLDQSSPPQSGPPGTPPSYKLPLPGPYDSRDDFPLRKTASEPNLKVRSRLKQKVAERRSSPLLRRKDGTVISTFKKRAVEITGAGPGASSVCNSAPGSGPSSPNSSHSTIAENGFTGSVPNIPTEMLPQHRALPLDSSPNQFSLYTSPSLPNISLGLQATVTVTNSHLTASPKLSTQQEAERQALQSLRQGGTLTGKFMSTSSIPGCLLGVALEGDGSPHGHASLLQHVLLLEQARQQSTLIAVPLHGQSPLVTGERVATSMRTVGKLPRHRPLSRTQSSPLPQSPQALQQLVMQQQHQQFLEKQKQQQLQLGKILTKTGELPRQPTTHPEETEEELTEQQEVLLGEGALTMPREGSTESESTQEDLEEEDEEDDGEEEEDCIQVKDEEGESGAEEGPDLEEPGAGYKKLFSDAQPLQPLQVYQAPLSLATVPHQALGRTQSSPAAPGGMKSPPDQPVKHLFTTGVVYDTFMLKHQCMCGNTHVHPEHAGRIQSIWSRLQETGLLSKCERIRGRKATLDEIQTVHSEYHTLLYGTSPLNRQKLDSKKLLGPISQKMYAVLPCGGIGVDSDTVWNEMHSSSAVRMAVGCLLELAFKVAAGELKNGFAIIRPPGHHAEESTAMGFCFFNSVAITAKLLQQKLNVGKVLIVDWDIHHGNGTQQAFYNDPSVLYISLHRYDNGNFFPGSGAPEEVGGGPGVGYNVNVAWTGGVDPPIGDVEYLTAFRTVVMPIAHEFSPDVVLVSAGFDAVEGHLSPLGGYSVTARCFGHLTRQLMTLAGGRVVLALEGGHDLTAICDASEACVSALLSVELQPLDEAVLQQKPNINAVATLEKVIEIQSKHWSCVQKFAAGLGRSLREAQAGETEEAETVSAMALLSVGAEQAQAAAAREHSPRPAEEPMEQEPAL
SMILES,"IC50 [1, 4] [nM]","IC50 [1, 5] [nM]",IC50 (HDAC5; [6]) [nM],IC50 (HDAC5; [7]) [nM],IC50 (HDAC6; [8]) [nM],IC50 (HDAC6; [9]) [nM],IC50 (HDAC10; [10]) [nM],IC50 (HDAC10; [11]) [nM],IC50 (HDAC11; [12]) [nM],IC50 (HDAC11; [13]) [nM],IC50 [2] [µM],IC50 [3] [µM]
"O=C1NC[C@@H](c2ccccc2)[C@@H]1C(=O)N[C@@H](CCCCCS)C(=O)Nc1ccccc1 [Example 31, (3S,4R)-2-Oxo-4-phenyl-pyrrolidine-3-carboxylic acid ((S)-6-mercapto-1-phenylcarbamoyl-hexyl)-amide]",< 50,< 50,< 50,< 50,< 50,< 50,< 50,< 50,< 50,< 50,1 to 10,–
"CC(=O)SCCCCC[C@H](NC(=O)[C@H]1CCC(=O)N1)C(=O)Nc1ccccc1 [Example 21, Thioacetic acid S—{(S)-6-[((R)-5-oxo-pyrrolidine-2-carbonyl)-amino]-6-phenylcarbamoyl-hexyl}ester]",< 50,–,< 50,–,< 50,–,< 50,–,< 50,–,–,< 0.5
"O=C1CC[C@H](C(=O)N[C@@H](CCCCCS)C(=O)Nc2ccccc2)N1 [Example 33, (R)-5-Oxo-pyrrolidine-2-carboxylic acid ((S)-6-mercapto-1-phenylcarbamoyl-hexyl)amide]",< 50,< 50,< 50,< 50,< 50,< 50,< 50,< 50,< 50,< 50,1 to 10,–
